# System: P. falciparum K1 (strain resistant to chloroquine and pyrimethamine), erythrocytic stages
# Test: Plasmodium falciparum in vitro assay, [3H] hypoxanthine incorporation
# Assay type: cell-based
# Settings: Plasmodium falciparum, K1, P. falciparum strain K1; [3H] hypoxanthine incorporation; read-out: IC50 (nM) on K1
# Procedure, shortened: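 K1 strain parasites grown in human red cells, 2.5% haematocrit, 0.3% parasitaemia, 37 °C, 4% CO2/3% O2; compounds in seven serial doubling dilutions.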
row,SMILES,IC50 [nM]
1,"CN(CCN(C)C(=O)[C@H](Cc1ccccc1)N(Cc1ccc(N2CCOCC2)cc1)C(=O)C=Cc1ccc(C(F)(F)F)cc1)Cc1ccc(N(C)CCO)cc1 [Example 255, (S)-N-(1-{[2-({4-[(2-Hydroxy-ethyl)-methyl-amino]-benzyl}-methyl-amino)-ethyl]-methyl-carbamoyl}-2-phenyl-ethyl)-N-(4-morpholin-4-yl-benzyl)-3-(4-trifluoromethyl-phenyl)-acrylamide]",59
2,"CN(CCN(C)C(=O)[C@H](Cc1ccccc1)N(Cc1ccc(N2CCOCC2)cc1)C(=O)C=Cc1ccc(C(F)(F)F)cc1)Cc1cccnc1 [Example 259, (S)-N-(1-{Methyl-[2-(methyl-pyridin-3-ylmethyl-amino)-ethyl]-carbamoyl}-2-phenyl-ethyl)-N-(4-morpholin-4-yl-benzyl)-3-(4-trifluoromethyl-phenyl)-acrylamide]",32
3,"CN(CCN(C)C(=O)[C@H](Cc1ccccc1)N(Cc1ccc(N2CCOCC2)cc1)C(=O)C=Cc1ccc(C(F)(F)F)cc1)Cc1cccc(C#N)c1 [Example 261, (S)-N-[1-({2-[(3-Cyano-benzyl)-methyl-amino]-ethyl}-methyl-carbamoyl)-2-phenyl-ethyl]-N-(4-morpholin-4-yl-benzyl)-3-(4-trifluoromethyl-phenyl)-acrylamide]",48
4,"CC(C)Oc1ccc(CN(C)CCN(C)C(=O)[C@H](Cc2ccccc2)N(Cc2ccc(N3CCOCC3)cc2)C(=O)C=Cc2ccc(C(F)(F)F)cc2)cc1 [Example 262, (S)-N-[1-({2-[(4-Isopropoxy-benzyl)-methyl-amino]-ethyl}-methyl-carbamoyl)-2-phenyl-ethyl]-N-(4-morpholin-4-yl-benzyl)-3-(4-trifluoromethyl-phenyl)-acrylamide]",17
5,"COc1ccc(CN(C)CCN(C)C(=O)[C@H](Cc2ccccc2)N(Cc2ccc(N3CCOCC3)cc2)C(=O)C=Cc2ccc(C(F)(F)F)cc2)cn1 [Example 264, (S)-N-[1-({2-[(6-Methoxy-pyridin-3-ylmethyl)-methyl-amino]-ethyl}-methyl-carbamoyl)-2-phenyl-ethyl]-N-(4-morpholin-4-yl-benzyl)-3-(4-trifluoromethyl-phenyl)-acrylamide]",39
6,"CN(CCN(C)C(=O)[C@H](Cc1ccccc1)N(Cc1ccc(N2CCOCC2)cc1)C(=O)C=Cc1ccc(C(F)(F)F)cc1)Cc1ccc2c(c1)OCO2 [Example 266, (S)-N-(1-{[2-(Benzo[1,3]dioxol-5-ylmethyl-methyl-amino)-ethyl]-methyl-carbamoyl}-2-phenyl-ethyl)-N-(4-morpholin-4-yl-benzyl)-3-(4-trifluoromethyl-phenyl)-acrylamide]",58
7,"Cc1ccc(CN(C)CCN(C)C(=O)[C@H](Cc2ccccc2)N(Cc2ccc(N3CCOCC3)cc2)C(=O)C=Cc2ccc(C(F)(F)F)cc2)c(F)c1F [Example 268, (S)-N-[1-({2-[(2,3-Difluoro-4-methyl-benzyl)-methyl-amino]-ethyl}-methyl-carbamoyl)-2-phenyl-ethyl]-N-(4-morpholin-4-yl-benzyl)-3-(4-trifluoromethyl-phenyl)-acrylamide]",80
8,"CN(CCN(C)C(=O)[C@H](Cc1ccccc1)N(Cc1ccc(N2CCOCC2)cc1)C(=O)C=Cc1ccc(C(F)(F)F)cc1)Cc1cnc[nH]1 [Example 269, (S)-N-[1-({2-[(3H-Imidazol-4-ylmethyl)-methyl-amino]-ethyl}-methyl-carbamoyl)-2-phenyl-ethyl]-N-(4-morpholin-4-yl-benzyl)-3-(4-trifluoromethyl-phenyl)-acrylamide]",63

# Continued by falling IC50, values first:
row,IC50 [nM],SMILES
1,76,"CC(=O)N1CCN(c2ccc(CN(C(=O)C=Cc3ccc(C(F)(F)F)cc3)[C@@H](Cc3ccccc3)C(=O)N(C)CCN(C)Cc3ccccc3)cc2)CC1 [Example 254, (S)-N-[4-(4-Acetyl-piperazin-1-yl)-benzyl]-N-(1-{[2-(benzyl-methyl-amino)-ethyl]-methyl-carbamoyl}-2-phenyl-ethyl)-3-(4-trifluoromethyl-phenyl)-acrylamide]"
2,72,"CN(CCN(C)C(=O)[C@H](Cc1ccccc1)N(Cc1ccc(N2CCOCC2)cc1)C(=O)C=Cc1ccc(C(F)(F)F)cc1)Cc1ccc2c(c1)OCCN2C [Example 263, (S)-N-[1-(Methyl-{2-[methyl-(4-methyl-3,4-dihydro-2H-benzo[1,4]oxazin-7-ylmethyl)-amino]-ethyl}-carbamoyl)-2-phenyl-ethyl]-N-(4-morpholin-4-yl-benzyl)-3-(4-trifluoromethyl-phenyl)-acrylamide]"
3,65,"CCN(CC)c1ccc(CN(C)CCN(C)C(=O)[C@H](Cc2ccccc2)N(Cc2ccc(N3CCOCC3)cc2)C(=O)C=Cc2ccc(C(F)(F)F)cc2)cc1 [Example 257, (S)-N-[1-({2-[(4-Diethylamino-benzyl)-methyl-amino]-ethyl}-methyl-carbamoyl)-2-phenyl-ethyl]-N-(4-morpholin-4-yl-benzyl)-3-(4-trifluoromethyl-phenyl)-acrylamide]"
4,43,"CN(CCN(C)C(=O)[C@H](Cc1ccccc1)N(Cc1ccc(N2CCOCC2)cc1)C(=O)C=Cc1ccc(C(F)(F)F)cc1)Cc1cccc(O)c1 [Example 258, (S)-N-[1-({2-[(3-Hydroxy-benzyl)-methyl-amino]-ethyl}-methyl-carbamoyl)-2-phenyl-ethyl]-N-(4-morpholin-4-yl-benzyl)-3-(4-trifluoromethyl-phenyl)-acrylamide]"
5,40,"CN(CCN(C)C(=O)[C@H](Cc1ccccc1)N(Cc1ccc(N2CCOCC2)cc1)C(=O)C=Cc1ccc(C(F)(F)F)cc1)Cc1cncnc1 [Example 267, (S)-N-(1-{Methyl-[2-(methyl-pyrimidin-5-ylmethyl-amino)-ethyl]-carbamoyl}-2-phenyl-ethyl)-N-(4-morpholin-4-yl-benzyl)-3-(4-trifluoromethyl-phenyl)-acrylamide]"
6,39,"CN(CCN(C)C(=O)[C@H](Cc1ccccc1)N(Cc1ccc(N2CCOCC2)cc1)C(=O)C=Cc1ccc(C(F)(F)F)cc1)Cc1ccc(O)cc1 [Example 256, (S)-N-[1-({2-[(4-Hydroxy-benzyl)-methyl-amino]-ethyl}-methyl-carbamoyl)-2-phenyl-ethyl]-N-(4-morpholin-4-yl-benzyl)-3-(4-trifluoromethyl-phenyl)-acrylamide]"
7,36,"CN(CCN(C)C(=O)[C@H](Cc1ccccc1)N(Cc1ccc(N2CCOCC2)cc1)C(=O)C=Cc1ccc(C(F)(F)F)cc1)Cc1nccs1 [Example 265, (S)-N-(1-{Methyl-[2-(methyl-thiazol-2-ylmethyl-amino)-ethyl]-carbamoyl}-2-phenyl-ethyl)-N-(4-morpholin-4-yl-benzyl)-3-(4-trifluoromethyl-phenyl)-acrylamide]"
8,25,"CN(CCN(C)C(=O)[C@H](Cc1ccccc1)N(Cc1ccc(N2CCOCC2)cc1)C(=O)C=Cc1ccc(C(F)(F)F)cc1)Cc1ccncc1 [Example 270, (S)-N-(1-{Methyl-[2-(methyl-pyridin-4-ylmethyl-amino)-ethyl]-carbamoyl}-2-phenyl-ethyl)-N-(4-morpholin-4-yl-benzyl)-3-(4-trifluoromethyl-phenyl)-acrylamide]"
9,14,"CN(CCN(C)C(=O)[C@H](Cc1ccccc1)N(Cc1ccc(N2CCOCC2)cc1)C(=O)C=Cc1ccc(C(F)(F)F)cc1)Cc1cccc(OCCO)c1 [Example 260, (S)-N-{1-[(2-{[3-(2-Hydroxy-ethoxy)-benzyl]-methyl-amino}-ethyl)-methyl-carbamoyl]-2-phenyl-ethyl}-N-(4-morpholin-4-yl-benzyl)-3-(4-trifluoromethyl-phenyl)-acrylamide]"

# Source: patent US20110224210A1, “NOVEL BIS-AMIDES AS ANTI-MALARIAL AGENTS” (priority 2008, published 2011)
